Results: patent US10375956B2, “Herbicidally active 2-(substituted-phenyl)-cyclopentane-1,3-dione compounds and derivatives thereof” (Syngenta Limited, priority 2013, dated 2019)

Key:
Type in all cases: in vivo
[1] = system: Lolium perenne (LOLPE); assay: Test 2 glasshouse assay (IF50 formulation, X-77), pre-emergence herbicidal activity; details: 480 h, 250 g/ha, 20DAA, read-out: Percentage phytotoxicity LOLPE
Method in brief: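 Plants in soil pots were sprayed 1 day (pre-emergence) or ~12 days (post-emergence) after sowing with IF50 formulation diluted in 0.2% v/v X-77. Cool species were grown at 20/16 °C day/night, 16 h light, 65% humidity. Visual % phytotoxicity was scored at 20DAA (pre) or 15DAA (post).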

[2] = system: Brachiaria plantaginea (BRAPL); assay: Test 2 glasshouse assay (IF50 formulation, X-77), post-emergence herbicidal activity; details: Urochloa plantaginea, 360 h, 15 DAA, visual score, read-out: Post-emergence herbicidal activity (percentage phytotoxicity) BRAPL
Method in brief: (§1)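 Test plants were sown in pots of standard soil and cultivated for one day (pre-emergence) or about 12 days (post-emergence) under controlled glasshouse conditions. An aqueous spray with IF50 and 0.2% v/v X-77 was then applied. Damage was rated visually as percentage phytotoxicity 20 days (pre) or 15 days (post) later.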

[3] = system: Sorghum vulgare Pers. (SORVU); assay: as above; details: Sorghum bicolor, 360 h, 15 DAA, visual score, read-out: Post-emergence herbicidal activity (percentage phytotoxicity) SORVU
Method in brief: as §1

[4] = system: Panicum miliaceum (PANMI); assay: as above; details: 360 h, 15 DAA, visual score, read-out: Post-emergence herbicidal activity (percentage phytotoxicity) PANMI
Method in brief: as §1

[5] = system: Digitaria sanguinalis (DIGSA); assay: as above; details: 360 h, 15 DAA, visual score, read-out: Post-emergence herbicidal activity (percentage phytotoxicity) DIGSA
Method in brief: as §1

[6] = system: Echinochloa crus-galli (ECHCG); assay: as above; details: 360 h, 15 DAA, visual score, read-out: Post-emergence herbicidal activity (percentage phytotoxicity) ECHCG
Method in brief: as §1

[7] = system: Setaria faberi (SETFA); assay: as above; details: 360 h, 15 DAA, visual score, read-out: Post-emergence herbicidal activity (percentage phytotoxicity) SETFA
Method in brief: as §1

[8] = system: Brachiaria plantaginea (BRAPL); assay: Test 2 glasshouse assay (IF50 formulation, X-77), pre-emergence herbicidal activity; details: Urochloa plantaginea, 480 h, 250 g/ha, 20DAA, read-out: Percentage phytotoxicity BRAPL
Method in brief: as §1

[9] = system: Sorghum vulgare Pers. (SORVU); assay: as above; details: Sorghum bicolor, 480 h, 250 g/ha, 20DAA, read-out: Percentage phytotoxicity SORVU
Method in brief: as §1

[10] = system: Panicum miliaceum (PANMI); assay: as above; details: 480 h, 250 g/ha, 20DAA, read-out: Percentage phytotoxicity PANMI
Method in brief: as §1

[11] = system: Digitaria sanguinalis (DIGSA); assay: as above; details: 480 h, 250 g/ha, 20DAA, read-out: Percentage phytotoxicity DIGSA
Method in brief: as §1

[12] = system: Echinochloa crus-galli (ECHCG); assay: as above; details: 480 h, 250 g/ha, 20DAA, read-out: Percentage phytotoxicity ECHCG
Method in brief: as §1

[13] = system: Setaria faberi (SETFA); assay: as above; details: 480 h, 250 g/ha, 20DAA, read-out: Percentage phytotoxicity SETFA
Method in brief: as §1

[14] = system: Zea mays (ZEAMX, corn/maize); assay: Test 1 glasshouse assay, pre-emergence herbicidal activity; details: 312 h, visual evaluation after 13 days, read-out: Percentage phytotoxicity ZEAMX
Method in brief: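 Steps: sow seeds in standard soil; after one day in the glasshouse, spray aqueous solution of technical compound (acetone/water 50:50, 0.5% Tween 20); grow on at 24/16° C with 14 h light and twice-daily watering; score phytotoxicity visually at 13 days.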

C#CCC1CC(=O)C(c2c(Cl)cc(-c3ccc(F)cc3F)cc2OC)C1=O (centres unmarked) [Compound A12]
pest or weed control at 250 g/ha [1]: 100%
pest or weed control at 30 g/ha ([2]; application rate 30 g/ha): 70%
pest or weed control at 125 g/ha ([2]; application rate 125 g/ha): 100%
pest or weed control at 30 g/ha ([3]; application rate 30 g/ha): 90%
pest or weed control at 125 g/ha ([3]; application rate 125 g/ha): 100%
pest or weed control at 30 g/ha ([4]; application rate 30 g/ha): 70%
pest or weed control at 125 g/ha ([4]; application rate 125 g/ha): 100%
pest or weed control at 30 g/ha ([5]; application rate 30 g/ha): 70%
pest or weed control at 125 g/ha ([5]; application rate 125 g/ha): 100%
pest or weed control at 30 g/ha ([6]; application rate 30 g/ha): 70%
pest or weed control at 125 g/ha ([6]; application rate 125 g/ha): 100%
pest or weed control at 30 g/ha ([7]; application rate 30 g/ha): 20%
pest or weed control at 125 g/ha ([7]; application rate 125 g/ha): 100%
pest or weed control at 250 g/ha [8]: 100%
pest or weed control at 250 g/ha [9]: 90%
pest or weed control at 250 g/ha [10]: 100%
pest or weed control at 250 g/ha [11]: 100%
pest or weed control at 250 g/ha [12]: 80%
pest or weed control at 250 g/ha [13]: 100%
pest or weed control at 250 g/ha [14]: 100%
